Data reported in US6531600B1, “Treatment and compounds” (Beecham Group p.l.c., priority 1989, dated 2003).

Assays:
[1] = biological target: c-AMP phosphodiesterase (erythrocytes); test: Inhibition of cyclic AMP phosphodiesterase (erythrocyte extract, radiochemical procedure); type: biochemical; conditions: phosphodiesterase extracted from erythrocytes
Description: a) Inhibition of Cyclic AMP Phosphodiesterase
The phosphodiesterase was extracted by mixing the erythrocytes with 4 volumes of 7 mM phosphate buffer, pH7.4, followed by sonification (3×10 sec; 100 W) and then centrifuging for 30 min at 4200×g.
All supernatants were diluted in the extraction medium and assayed for phosphodiesterase activity within 6 hours of preparation, using the radiochemical procedure described in the above mentioned reference.

[2] = system: Sephadex induced eosinophilia; test: Sephadex induced blood eosinophilia in the rat; type: in vivo; conditions: n = 12 or more
Description: b) Induction of blood eosinophilia and the effects of drugs.
Male Charles River Sprague Dawley rats weight between 250 to 300 g were used.
The method used was a modification of that described by Laycock et al (Int. Arch. Appl. Immunol, (1986). 81, 363).
Sephadex G200, particle size 40 to 120 micron, was suspended in isotonic saline at 0.5 mg/ml, and stored for 48 h at 4° C. 1 ml of the suspension was given intravenously to rats on days 0,2 and 5. A control group received saline. The test compound was given before the Sephadex on each occasion, with a contact time expected to give maximum activity at the time of the Sephadex administration. Blood was taken from the tail vein of the rats on day 7 for the determination of total and differential leucocyte counts.
A control group of at least 6 animals was included each time a compound was evaluated. The control group received Sephadex and the vehicle without test compound. The results in the drug treated animals were compared with the control group. Alternatively, if the mean for the control group for any experiment was not statistically different from the mean of the sum of all of the controls groups, then the treated animal results for that experiment were compared with the mean of the sum of all the control groups.
Total and differential leucocyte counts
20 μl samples of blood, taken from the tail vein of the rats, were added to 10 ml of Isoton II and, within 30 min, Zaponin (3 drops) was added, to lyse the erythrocytes. Five minutes later the total cell count was determined using a Coulter Counter Model DN. Differential leucocyte counts were carried out by fixing and staining a blood smear on a microscopic slide with May-Grunwald and Giemsa stains. A minimum of 400 cells were counted on each slide.
Probability values were calculated using the Student's t test.
The effect of the test compound upon Sephadex induced eosinophilia in the rat is set out in Table 3. The test compound was given orally 30 minutes before each injection of Sephadex.

[3] = 25.0 mg/kg orally 30 mins before each Sephadex i.v. injection

Row | Compound | Ki [1] | melting point | other results
1 | O=c1c2[nH]c([N+](=O)[O-])nc2n(CC2CCC2)c(=O)n1CC1CCC1 [Example 3] | 6.1 µM | 220 °C | –
2 | Nc1nc2c([nH]1)c(=O)n(C1CC1)c(=O)n2C1CC1 [Example 13, 1,3-Di-cyclopropyl-8-amino xanthine] | 14 µM | – | –
3 | O=c1c2[nH]c(Cl)nc2n(CC2CC2)c(=O)n1CC1CC1 [Example 17, 1,3-Di-cyclopropylmethyl-8-chloro xanthine] | 15.1 µM | – | –
4 | CCCCn1c(=O)c2[nH]c([N+](=O)[O-])nc2n(CCCC)c1=O [Example 1, 1,3-Di-n-butyl-8-nitro xanthine] | 17 µM | – | % of Control Mean ± SEM (blood eosinophilia) [2, 3]: 109 ± 6 % of Control
5 | 1,3-Di-cyclopropylmethyl-8-pyrrolidinyl xanthine [Example 22] | 29.7 µM | – | –
6 | Nc1nc2c([nH]1)c(=O)n(CC1CCC1)c(=O)n2CC1CCC1 [Example 10] | 0.53 µM | 124 °C (dec.) | % of Control Mean ± SEM (blood eosinophilia) ([2]; 5.0 mg/kg orally 30 mins before each Sephadex i.v. injection): 47 ± 4 % of Control
7 | O=c1c2[nH]c(Cl)nc2n(C2CCCCC2)c(=O)n1C1CCCCC1 [Example 18, 1,3-Di-cyclohexyl-8-chloro xanthine] | 23 µM | – | –
8 | O=c1c2[nH]c(N3CCOCC3)nc2n(CC2CC2)c(=O)n1CC1CC1 [Example 20, 1,3-Di-cyclopropylmethyl-8-morpholino xanthine] | 11.5 µM | – | –
9 | O=c1c2[nH]c([N+](=O)[O-])nc2n(CC2CCCC2)c(=O)n1CC1CCCC1 [Example 4] | 4.8 µM | 148 to 150 °C | –
10 | O=c1c2[nH]c([N+](=O)[O-])nc2n(CC2CC2)c(=O)n1CC1CC1 [Example 2, 1,3-Di-cyclopropylmethyl-8-nitro xanthine] | 15.9 µM | – | –
11 | CCCCn1c(=O)c2[nH]c(N)nc2n(CCCC)c1=O [Example 8, 1,3-Di-n-butyl-8-amino xanthine] | – | 89 °C | –
12 | 1,3-Di-cyclopropylmethyl-8-piperidinyl xanthine [Example 23] | 55.9 µM | – | –
13 | Nc1nc2c([nH]1)c(=O)n(CC1CC1)c(=O)n2CC1CC1 [Example 9, 1,3-Di-cyclopropylmethyl-8-amino xanthine] | 1.6 µM | – | % of Control Mean ± SEM (blood eosinophilia) ([2]; 0.2 mg/kg orally 30 mins before each Sephadex i.v. injection): 61 ± 8 % of Control; % of Control Mean ± SEM (blood eosinophilia) ([2]; 2.0 mg/kg orally 30 mins before each Sephadex i.v. injection): 48 ± 7 % of Control
14 | CCCCn1c(=O)c2[nH]c(N)nc2n(CCCC)c1=O.Cl [Example 7, 1,3-Di-n-butyl-8-amino xanthine hydrochloride] | 1.3 µM | – | % of Control Mean ± SEM (blood eosinophilia) [2, 3]: 91 ± 6 % of Control
15 | Nc1nc2c([nH]1)c(=O)n(CC1CCCC1)c(=O)n2CC1CCCC1 [Example 11] | 0.57 µM | 300 °C | –
16 | CCCCn1c(=O)c2[nH]c(N3CCCCC3)nc2n(CCCC)c1=O [Example 19, 1,3-Di-n-butyl-8-piperidino xanthine] | < 100 µM | – | –
17 | O=c1c2[nH]c([N+](=O)[O-])nc2n(CC2CCCCC2)c(=O)n1CC1CCCCC1 [Example 5] | 5.4 µM | 140 °C | –
18 | O=c1c2[nH]c(Br)nc2n(CC2CCCCC2)c(=O)n1CC1CCCCC1 [Example 25, 1,3-Di-cyclohexylmethyl-8-bromo xanthine] | 7.9 µM | – | –
